Source: ChEMBL document CHEMBL1201862, “PubChem BioAssay data set” (2004)
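Protocol summary: plate cells (96-well), add compound at 5 concentrations, incubate 48 h, interpolate endpoints linearly. At the GI50, growth is halved.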 Activity calls are given as the source filed them. No stated cut-off is given here; in the data, active = GI50 up to about 1.1 µM and inactive = higher.

How the values were obtained:
Experiment in all cases: NCI-60 cell line screen, 48 h
[1] = tested on: NCI-H460
[2] = tested on: TK-10
[3] = tested on: HL-60
[4] = tested on: SW-620
[5] = tested on: UACC-62
[6] = tested on: DMS-273
[7] = tested on: DLD-1
[8] = tested on: SNB-78
[9] = tested on: A498
[10] = tested on: KM12
[11] = tested on: UO-31
[12] = tested on: A549
[13] = tested on: SNB-75
[14] = tested on: DMS-114
[15] = tested on: HOP-18

Q: NC(S)=Nc1cc(Cl)ccc1Cl was tested. Which GI50 [1] did it give?
A: The GI50 was > 100 µM (inactive).

Q: What about the GI50 [2] of the same molecule?
A: The GI50 was > 100 µM (inactive).

Q: And the GI50 [3]?
A: Its GI50 is > 100 µM (inactive).

Q: And the GI50 [4]?
A: The GI50 was > 100 µM (inactive).

Q: What about the GI50 [5] of the same molecule?
A: The GI50 was > 100 µM (inactive).

Q: What about the GI50 [6] of the same molecule?
A: The GI50 was > 100 µM (inactive).

Q: And the GI50 [7]?
A: The GI50 was > 100 µM (inactive).

Q: And the GI50 [8]?
A: Its GI50 is > 100 µM (inactive).

Q: And the GI50 [9]?
A: The GI50 was > 100 µM (inactive).

Q: And the GI50 [10]?
A: Its GI50 is > 100 µM (inactive).

Q: And the GI50 [11]?
A: Its GI50 is > 100 µM (inactive).

Q: And the GI50 [12]?
A: The GI50 was > 100 µM (inactive).

Q: And the GI50 [13]?
A: The GI50 was 55.7 µM (inactive).

Q: And the GI50 [14]?
A: Its GI50 is > 100 µM (inactive).

Q: And the GI50 [15]?
A: Its GI50 is > 100 µM (inactive).

Q: With O=[N+]([O-])c1cc2ncc(-c3ccccc3)c(O)c2cc1/C(Cl)=C/c1ccccc1 as the molecule, how does the GI50 [1] read?
A: The GI50 was 9.16 µM (inactive).

Q: What about the GI50 [3] of the same molecule?
A: The GI50 was 5.25 µM (inactive).

Q: What about the GI50 [4] of the same molecule?
A: The GI50 was 6.71 µM (inactive).

Q: What about the GI50 [5] of the same molecule?
A: Its GI50 is 6.97 µM (inactive).

Q: What about the GI50 [6] of the same molecule?
A: The GI50 was 5.61 µM (inactive).

Q: And the GI50 [7]?
A: The GI50 was 3.83 µM (inactive).

Q: And the GI50 [8]?
A: Its GI50 is 8.73 µM (inactive).

Q: What about the GI50 [9] of the same molecule?
A: The GI50 was 16.1 µM (inactive).

Q: What about the GI50 [10] of the same molecule?
A: The GI50 was 9.12 µM (inactive).

Q: What about the GI50 [11] of the same molecule?
A: Its GI50 is 9.89 µM (inactive).

Q: And the GI50 [12]?
A: Its GI50 is 10.1 µM (inactive).

Q: And the GI50 [13]?
A: The GI50 was 9.1 µM (inactive).

Q: What about the GI50 [14] of the same molecule?
A: Its GI50 is 4.88 µM (inactive).

Q: What about the GI50 [15] of the same molecule?
A: The GI50 was 2.11 µM (inactive).

Q: Which results are given for CC1(C)OC2COC3(CNO)OC(C)(C)OC3C2O1 (configuration not stated)?
A: GI50 [1]: > 100 µM (inactive); GI50 [2]: > 100 µM (inactive); GI50 [3]: 16.6 µM (inactive); GI50 [4]: > 100 µM (inactive); GI50 [5]: > 100 µM (inactive); GI50 [6]: > 100 µM (inactive); GI50 [7]: > 100 µM (inactive); GI50 [8]: > 100 µM (inactive); GI50 [9]: > 100 µM (inactive); GI50 [10]: > 100 µM (inactive); GI50 [11]: > 100 µM (inactive); GI50 [12]: > 100 µM (inactive); GI50 [13]: > 100 µM (inactive); GI50 [14]: > 100 µM (inactive); GI50 [15]: > 100 µM (inactive)

Q: For CC(=O)/C=C/c1c[nH]c(=O)[nH]c1=O, which GI50 [1] is on record?
A: Its GI50 is 186 µM (inactive).

Q: And the GI50 [3]?
A: Its GI50 is 97.9 µM (inactive).

Q: And the GI50 [4]?
A: The GI50 was 223 µM (inactive).

Q: And the GI50 [5]?
A: The GI50 was 236 µM (inactive).

Q: What about the GI50 [6] of the same molecule?
A: The GI50 was 89.1 µM (inactive).

Q: And the GI50 [7]?
A: The GI50 was 179 µM (inactive).

Q: And the GI50 [8]?
A: The GI50 was 159 µM (inactive).

Q: And the GI50 [9]?
A: The GI50 was 214 µM (inactive).

Q: What about the GI50 [10] of the same molecule?
A: Its GI50 is 187 µM (inactive).

Q: And the GI50 [11]?
A: Its GI50 is 130 µM (inactive).

Q: What about the GI50 [12] of the same molecule?
A: The GI50 was 305 µM (inactive).

Q: What about the GI50 [13] of the same molecule?
A: The GI50 was 217 µM (inactive).

Q: And the GI50 [14]?
A: The GI50 was 242 µM (inactive).

Q: What about the GI50 [15] of the same molecule?
A: Its GI50 is 155 µM (inactive).

Q: How did the GI50 [1] turn out when CC(C)(C)[Si](OC1CC(n2cnc3c(N)ncnc32)OC1CO)(c1ccccc1)c1ccccc1 (configuration not stated) was run?
A: The GI50 was 16.3 µM (inactive).

Q: And the GI50 [2]?
A: Its GI50 is 24.2 µM (inactive).

Q: And the GI50 [3]?
A: The GI50 was 41.4 µM (inactive).

Q: What about the GI50 [4] of the same molecule?
A: Its GI50 is 19 µM (inactive).

Q: And the GI50 [6]?
A: Its GI50 is 18.7 µM (inactive).

Q: What about the GI50 [7] of the same molecule?
A: Its GI50 is 15.5 µM (inactive).

Q: And the GI50 [8]?
A: The GI50 was > 100 µM (inactive).

Q: What about the GI50 [9] of the same molecule?
A: Its GI50 is 17.9 µM (inactive).

Q: And the GI50 [10]?
A: The GI50 was 19.8 µM (inactive).

Q: What about the GI50 [11] of the same molecule?
A: Its GI50 is 23.7 µM (inactive).

Q: And the GI50 [12]?
A: Its GI50 is 15.2 µM (inactive).

Q: What about the GI50 [14] of the same molecule?
A: The GI50 was 23.7 µM (inactive).

Q: What about the GI50 [15] of the same molecule?
A: Its GI50 is 67.6 µM (inactive).

Q: COc1ccc(-c2cc(-c3ccccc3)c(C#N)c(=O)n2C2OC(CO)C(O)C(O)C2O)cc1 (configuration not stated) was tested. Which GI50 [1] did it give?
A: Its GI50 is > 100 µM (inactive).

Q: What about the GI50 [2] of the same molecule?
A: Its GI50 is > 100 µM (inactive).

Q: And the GI50 [3]?
A: Its GI50 is > 100 µM (inactive).

Q: What about the GI50 [4] of the same molecule?
A: The GI50 was > 100 µM (inactive).

Q: What about the GI50 [5] of the same molecule?
A: The GI50 was > 100 µM (inactive).

Q: And the GI50 [6]?
A: Its GI50 is > 100 µM (inactive).

Q: And the GI50 [7]?
A: The GI50 was > 100 µM (inactive).

Q: And the GI50 [8]?
A: Its GI50 is > 100 µM (inactive).

Q: What about the GI50 [9] of the same molecule?
A: Its GI50 is > 100 µM (inactive).

Q: What about the GI50 [10] of the same molecule?
A: Its GI50 is > 100 µM (inactive).

Q: What about the GI50 [11] of the same molecule?
A: Its GI50 is > 100 µM (inactive).

Q: What about the GI50 [12] of the same molecule?
A: Its GI50 is > 100 µM (inactive).

Q: What about the GI50 [14] of the same molecule?
A: Its GI50 is > 100 µM (inactive).

Q: And the GI50 [15]?
A: Its GI50 is > 100 µM (inactive).

Q: What does the source list for NC(=O)NN=C(CS)CS?
A: GI50 [1]: 23.7 µM (inactive); GI50 [3]: 0.41 µM (active); GI50 [4]: 28.4 µM (inactive); GI50 [5]: 25.3 µM (inactive); GI50 [6]: 20 µM (inactive); GI50 [7]: 34 µM (inactive); GI50 [8]: 41 µM (inactive); GI50 [9]: 14.9 µM (inactive); GI50 [10]: 33.2 µM (inactive); GI50 [11]: 18.8 µM (inactive); GI50 [12]: 22 µM (inactive); GI50 [13]: 33 µM (inactive); GI50 [14]: 30.5 µM (inactive); GI50 [15]: 26.7 µM (inactive)

Q: For O=C(NCCCCCCNC(=O)n1cc(F)c(=O)[nH]c1=O)NCCCOCCOCCCNC(=O)C(O)C(O)C(O)C(O)CO (configuration not stated), which GI50 [1] is on record?
A: Its GI50 is 1.51 µM (inactive).

Q: And the GI50 [3]?
A: Its GI50 is > 2.29 µM (inactive).

Q: And the GI50 [4]?
A: The GI50 was > 2.5 µM (inactive).

Q: And the GI50 [5]?
A: The GI50 was > 2.5 µM (inactive).

Q: What about the GI50 [6] of the same molecule?
A: The GI50 was > 2.5 µM (inactive).

Q: And the GI50 [7]?
A: The GI50 was 2.44 µM (inactive).

Q: And the GI50 [8]?
A: The GI50 was > 2.5 µM (inactive).

Q: And the GI50 [9]?
A: The GI50 was > 2.5 µM (inactive).

Q: And the GI50 [10]?
A: The GI50 was > 2.5 µM (inactive).

Q: What about the GI50 [11] of the same molecule?
A: The GI50 was > 2.3 µM (inactive).

Q: What about the GI50 [12] of the same molecule?
A: The GI50 was > 2.05 µM (inactive).

Q: What about the GI50 [13] of the same molecule?
A: Its GI50 is > 2.5 µM (inactive).

Q: And the GI50 [14]?
A: Its GI50 is > 2.5 µM (inactive).

Q: And the GI50 [15]?
A: Its GI50 is > 2.5 µM (inactive).

Q: How did the GI50 [1] turn out when Cc1cnc(SCCN2CCN(C)CC2)nc1-c1cc2ccccc2s1 was run?
A: Its GI50 is 3.51 µM (inactive).

Q: And the GI50 [2]?
A: The GI50 was 17.4 µM (inactive).

Q: And the GI50 [4]?
A: The GI50 was 11.9 µM (inactive).

Q: And the GI50 [5]?
A: Its GI50 is 16.2 µM (inactive).

Q: And the GI50 [6]?
A: Its GI50 is 4.93 µM (inactive).

Q: And the GI50 [7]?
A: Its GI50 is 12.6 µM (inactive).

Q: What about the GI50 [8] of the same molecule?
A: The GI50 was 16.7 µM (inactive).

Q: And the GI50 [9]?
A: The GI50 was 15.3 µM (inactive).

Q: And the GI50 [10]?
A: The GI50 was 16.3 µM (inactive).

Q: What about the GI50 [11] of the same molecule?
A: The GI50 was 7.78 µM (inactive).

Q: What about the GI50 [12] of the same molecule?
A: The GI50 was 4.62 µM (inactive).

Q: And the GI50 [13]?
A: Its GI50 is 12.2 µM (inactive).

Q: And the GI50 [14]?
A: The GI50 was 7.66 µM (inactive).

Q: What about the GI50 [15] of the same molecule?
A: The GI50 was < 0.01 µM (active).
